The values that follow come from patent US10988478B1, “Pyrazolo[1,5a]pyrimidine derivatives as IRAK4 modulators” (Genentech, Inc., priority 2015, dated 2021).

human IRAK4, sequence (Q9NWZ3 whole entry, the tested form may be a part): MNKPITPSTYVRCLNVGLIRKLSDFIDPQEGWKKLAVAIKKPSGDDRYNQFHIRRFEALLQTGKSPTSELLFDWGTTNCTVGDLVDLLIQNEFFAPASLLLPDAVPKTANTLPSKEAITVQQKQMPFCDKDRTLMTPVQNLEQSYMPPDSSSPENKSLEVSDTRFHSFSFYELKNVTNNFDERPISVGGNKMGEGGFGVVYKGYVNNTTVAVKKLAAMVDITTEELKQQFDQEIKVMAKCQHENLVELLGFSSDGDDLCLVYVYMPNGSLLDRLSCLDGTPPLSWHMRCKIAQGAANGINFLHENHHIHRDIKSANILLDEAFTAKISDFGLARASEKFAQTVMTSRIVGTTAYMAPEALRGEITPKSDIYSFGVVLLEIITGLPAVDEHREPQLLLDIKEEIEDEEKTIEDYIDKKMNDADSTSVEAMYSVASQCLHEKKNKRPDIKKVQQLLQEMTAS

The assay has as its target human IRAK4 (Homo sapiens (Human), UniProt Q9NWZ3). As to the kind of experiment: IRAK4 kinase inhibition, Transcreener fluorescence polarization ADP assay. The format is biochemical. As to conditions: recombinant full-length His6-IRAK4; 125 uM ATP; 90 min; Ki computed using ATP Km 642 uM. The procedure:
Compounds were assayed for inhibition of human IRAK4 and IRAK1 catalytic activity using recombinant enzyme produced from insect cells. Full-length IRAK4 protein, carrying an N-terminal His6-Tag, was obtained from Life Technologies (Carlsbad, Calif., USA). The IRAK1 construct was produced internally and was comprised of IRAK1 residues Arg194 to Ser712, preceded by an NH2-terminal His6 tag and the coding sequence for glutathione-S-transferase.
A word on the Ki: it is the equilibrium dissociation constant of an inhibitor or competing ligand from its target. As to `CC1(C)Cc2cc(NC(=O)c3cnn4cccnc34)c(N3CCN4CCC[C@@H]4C3)cc2O1` [Example 443, (R)-N-(6-(hexahydropyrrolo[1,2-a]pyrazin-2(1H)-yl)-2,2-dimethyl-2,3-dihydrobenzofuran-5-yl)pyrazolo[1,5-a]pyrimidine-3-carboxamide], the Ki was determined as 38 nM.
`C[C@@]1(CO)Cc2cc(NC(=O)c3cnn4cc(Cl)cnc34)c(N3CCOCC3)cc2O1` [Example 165, (S)-6-Chloro-N-(2-(hydroxymethyl)-2-methyl-6-morpholino-2,3-dihydrobenzofuran-5-yl)pyrazolo[1,5-a]pyrimidine-3-carboxamide]: the Ki is 5.6 nM.
Regarding `C[C@@]1(O)COc2cc(N3CCC([C@](C)(O)C(F)(F)F)CC3)c(NC(=O)c3cnn4cccnc34)cc2C1` [Example 421, N—((S)-3-hydroxy-3-methyl-7-(4-((S)-1,1,1-trifluoro-2-hydroxypropan-2-yl)piperidin-1-yl)chroman-6-yl)pyrazolo[1,5-a]pyrimidine-3-carboxamide], the Ki stood at 100 nM.
With `CC(C)(O)[C@]1(C)Cc2cc(NC(=O)c3cnn4cccnc34)c(O[C@H]3CC[C@@H](O)CC3)cc2O1` [Example 312, N-[(2S)-6-(cis-4-Hydroxycyclo-hexoxy)-2-(1-hydroxy-1-methyl-ethyl)-2-methyl-3H-benzofuran-5-yl]pyrazolo[1,5-a]pyrimidine-3-carboxamide], the Ki worked out at 73 nM.
Next, `C[C@]1(CO)Cc2cc(NC(=O)c3cnn4cccnc34)c(N3CCC([C@](C)(O)C(F)(F)F)CC3)cc2O1` [Example 410, N—((R)-2-(hydroxymethyl)-2-methyl-6-(4-((S)-1,1,1-trifluoro-2-hydroxypropan-2-yl)piperidin-1-yl)-2,3-dihydrobenzofuran-5-yl)pyrazolo[1,5-a]pyrimidine-3-carboxamide]: 6.2 nM; `CC1(C)Cc2cc(NC(=O)c3cnn4cccnc34)c(N3CCS(=O)(=O)CC3)cc2O1` [Example 41, N-[6-(1,1-Dioxo-thiomorpholin-4-yl)-2,2-dimethyl-2,3-dihydro-1-benzofuran-5-yl]pyrazolo[1,5-a]pyrimidine-3-carboxamide]: 84 nM; `CC1(C)CN(c2cc3c(cc2NC(=O)c2cnn4cccnc24)CC(C)(CO)O3)CCO1` (stereo not drawn) [Example 17, N-(6-(2,2-Dimethylmorpholino)-2-(hydroxymethyl)-2-methyl-2,3-dihydrobenzofuran-5-yl)pyrazolo[1,5-a]pyrimidine-3-carboxamide]: 180 nM.
As for `C[C@]1(CO)Cc2cc(NC(=O)c3cnn4cccnc34)c(N3CCOCC3)c(Cl)c2O1` [Example 80, (R)—N-(7-Chloro-2-(hydroxymethyl)-2-methyl-6-morpholino-2,3-dihydrobenzofuran-5-yl)pyrazolo[1,5-a]pyrimidine-3-carboxamide], the Ki was 34 nM.
In the case of `CN1CCC2(CC1)Cc1cc(NC(=O)c3cnn4cccnc34)c(N3CCN(CC(N)=O)CC3)cc1O2` [Example 373, N-(6-(4-(2-Amino-2-oxoethyl)piperazin-1-yl)-1′-methyl-3H-spiro[benzofuran-2,4′-piperidin]-5-yl)pyrazolo[1,5-a]pyrimidine-3-carboxamide], the inhibition constant Ki is 1.7 nM.
Take `CN1CCC(N2Cc3cc(NC(=O)c4cnn5cccnc45)c(N4CCOCC4)cc3C2=O)CC1` [Example 180, N-[2-(1-methyl-4-piperidyl)-6-morpholino-1-oxo-isoindolin-5-yl]pyrazolo[1,5-a]pyrimidine-3-carboxamide]: the Ki came to 3.8 nM.
In the case of `C[C@]1(O)COc2cc(N3CCC(C#N)CC3)c(NC(=O)c3cnn4cccnc34)cc2C1` [Example 426, (R)-N-(7-(4-cyanopiperidin-1-yl)-3-hydroxy-3-methylchroman-6-yl)pyrazolo[1,5-a]pyrimidine-3-carboxamide], the Ki is 5 nM.
As to `C[C@@]1(CC#N)COc2cc(N3CCOCC3)c(NC(=O)c3cnn4cccnc34)cc2C1` [Example 519, N-[(3R)-3-(cyanomethyl)-3-methyl-7-morpholino-chroman-6-yl]pyrazolo[1,5-a]pyrimidine-3-carboxamide], the inhibition constant Ki worked out at 39 nM.
On to `CC1(C)Cc2cc(NC(=O)c3cnn4cccnc34)c(N3CCOCC3)cc2C1=O` [Example 499, N-(2,2-Dimethyl-6-morpholino-1-oxo-2,3-dihydro-1H-inden-5-yl)pyrazolo[1,5-a]pyrimidine-3-carboxamide], for which the Ki was 30 nM.
For `O=C(Nc1cc2c(cc1N1CCC(CO)CC1)OCCN2)c1cnn2cccnc12` [Example 1, N-(7-(4-(Hydroxymethyl)piperidin-1-yl)-3,4-dihydro-2H-benzo[b][1,4]oxazin-6-yl)pyrazolo[1,5-a]pyrimidine-3-carboxamide], the inhibition constant Ki is 4.7 nM.
As for `CC1(C)Cc2cc(NC(=O)c3cnn4cc(Cl)cnc34)c(N3CCC4(CCOC4)CC3)cc2O1` [Example 167, 6-Chloro-N-(2,2-dimethyl-6-(2-oxa-8-azaspiro[4.5]decan-8-yl)-2,3-dihydrobenzofuran-5-yl)pyrazolo[1,5-a]pyrimidine-3-carboxamide], the Ki was 2.8 nM.
Next, `CC(C)(O)[C@]1(C)Cc2cc(NC(=O)c3cnn4cccnc34)c(N3CCOCC3)cc2O1` [Example 158, (S)—N-(2-(2-Hydroxypropan-2-yl)-2-methyl-6-morpholino-2,3-dihydrobenzofuran-5-yl)pyrazolo[1,5-a]pyrimidine-3-carboxamide]: 27 nM; `C[C@@]1(CO)Cc2cc(NC(=O)c3cnn4cccnc34)c(N3CCC(F)(CO)CC3)cc2O1` (single isomer, unassigned) [Example 45]: 1.9 nM; `CC1CCCN1c1cc2c(cc1NC(=O)c1cnn3cccnc13)CC(C)(C)O2` (stereo not drawn) [Example 104, N-[2,2-dimethyl-6-(2-methylpyrrolidin-1-yl)-3H-benzofuran-5-yl]pyrazolo[1,5-a]pyrimidine-3-carboxamide]: 22 nM.
For `CC1(C)Cc2cc(NC(=O)c3cnn4cccnc34)c(C3CCN(CCO)CC3)cc2O1` [Example 357, N-(6-(1-(2-Hydroxyethyl)piperidin-4-yl)-2,2-dimethyl-2,3-dihydrobenzofuran-5-yl)pyrazolo[1,5-a]pyrimidine-3-carboxamide], the inhibitory constant (Ki) was 410 nM.
As to `C[C@@]1(O)COc2cc(N3CCC(C#N)CC3)c(NC(=O)c3cnn4cccnc34)cc2C1` [Example 427, (S)-N-(7-(4-cyanopiperidin-1-yl)-3-hydroxy-3-methylchroman-6-yl)pyrazolo[1,5-a]pyrimidine-3-carboxamide], the inhibition constant (Ki) was determined as 38 nM.
For the compound `CC(C)(O)[C@@]1(C)Cc2cc(NC(=O)c3cnn4cccnc34)c(N3CCN(Cc4c[nH]cn4)CC3)cc2O1` [Example 522, N-[(2R)-2-(1-Hydroxy-1-methyl-ethyl)-6-[4-(1H-imidazol-4-ylmethyl)piperazin-1-yl]-2-methyl-3H-benzofuran-5-yl]pyrazolo[1,5-a]pyrimidine-3-carboxamide], the Ki stood at 3.4 nM.
`Cc1noc(CN2CCN(c3cc4c(cc3NC(=O)c3cnn5cccnc35)CC(C)(C)O4)CC2)n1` [Example 459, N-(2,2-dimethyl-6-(4-((3-methyl-1,2,4-oxadiazol-5-yl)methyl)piperazin-1-yl)-2,3-dihydrobenzofuran-5-yl)pyrazolo[1,5-a]pyrimidine-3-carboxamide]: the inhibitory constant (Ki) turned out to be 16 nM.
For the compound `CC1(C)Cc2cc(NC(=O)c3cnn4cccnc34)c(N3CCC4(CC3)COC4)cc2O1` [Example 114, N-(2,2-Dimethyl-6-(2-oxa-7-azaspiro[3.5]nonan-7-yl)-2,3-dihydrobenzofuran-5-yl)pyrazolo[1,5-a]pyrimidine-3-carboxamide], the Ki turned out to be 17 nM.
Next, `CC1(C)Cc2cc(NC(=O)c3cnn4cccnc34)c(N3CCC(F)(CO)CC3)cc2O1` [Example 40, N-(6-(4-Fluoro-4-(hydroxymethyl)piperidin-1-yl)-2,2-dimethyl-2,3-dihydrobenzofuran-5-yl)pyrazolo[1,5-a]pyrimidine-3-carboxamide]: 1 nM; `CC(C)N1Cc2cc(NC(=O)c3cnn4cccnc34)c(N3CCOCC3)cc2S1(=O)=O` [Example 287, N-(2-Isopropyl-6-morpholino-1,1-dioxo-3H-1,2-benzothiazol-5-yl)pyrazolo[1,5-a] pyrimidine-3-carboxamide]: 26 nM; `CC1(C)Cc2cc(NC(=O)c3cnn4cccnc34)c(N3CCC4(CC3)CNC(=O)C4)cc2O1` [Example 213, N-(2,2-dimethyl-6-(3-oxo-2,8-diazaspiro[4.5]decan-8-yl)-2,3-dihydrobenzofuran-5-yl)pyrazolo[1,5-a]pyrimidine-3-]: 3 nM.
For the compound `C[C@@]1(C2CC2)Cc2cc(NC(=O)c3cnn4cccnc34)c(N3CCC(F)(CO)CC3)cc2O1` [Example 162, (S)—N-(2-Cyclopropyl-6-(4-fluoro-4-(hydroxymethyl)piperidin-1-yl)-2-methyl-2,3-dihydrobenzofuran-5-yl)pyrazolo[1,5-a]pyrimidine-3-carboxamide], the Ki was 4.5 nM.
As to `O=C(Nc1cc2c(cc1N1CCOCC1)C(=O)N([C@@H]1CCC[C@H]1CO)C2)c1cnn2cccnc12` [Example 567, N-(2-((1R,2R)-2-(hydroxymethyl)cyclopentyl)-6-morpholino-1-oxoisoindolin-5-yl)pyrazolo[1,5-a]pyrimidine-3-carboxamide], the Ki came to 5.9 nM.
Consider `C[C@]1(O)COc2cc(N3CCC(n4ccnc4)CC3)c(NC(=O)c3cnn4cccnc34)cc2C1` [Example 428, (R)-N-(7-(4-(1H-imidazol-1-yl)piperidin-1-yl)-3-hydroxy-3-methylchroman-6-yl)pyrazolo[1,5-a]pyrimidine-3-carboxamide], for which the inhibition constant Ki amounted to 75 nM.
`CC(=O)N1CCCN(c2cc3c(cc2NC(=O)c2cnn4cccnc24)CC(C)(C)O3)CC1` [Example 220, N-(6-(4-acetyl-1,4-diazepan-1-yl)-2,2-dimethyl-2,3-dihydrobenzofuran-5-yl)pyrazolo[1,5-a]pyrimidine-3-carboxamide]: the Ki worked out at 75 nM.
